According to PMC8949771, “Gold(I)-Mediated Rapid Cyclization of Propargylated Peptides via Imine Formation” (Journal of the American Chemical Society, 2022):

Test: Au(I)-mediated imine macrocyclisation: N-terminal amine adds (Markovnikov) to N-propargyl backbone amide alkyne; JohnPhosAu(MeCN)SbF6 2 equiv, Et4NBr 16 equiv; in situ NaBH4 10 equiv reduction 15 min for quantification
Conditions: 24-membered ring, DMF, 8.0 mM, 37.0 °C

SMILES: CC(C)C[C@@H]1NC(=O)CNC(=O)[C@H](Cc2c[nH]cn2)NC(C)CN(CC(N)=O)C(=O)CNC(=O)[C@H](C)NC(=O)[C@H](CCCNC(=N)N)NC(=O)[C@H](Cc2ccc(O)cc2)NC1=O (stereo partly drawn) [H-His-Gly-Leu-Tyr-Arg-Ala-Gly-(N-propargyl)Gly-NH2]
- ring closure, conversion by HPLC (from C#CCN(CC(N)=O)C(=O)CNC(=O)[C@H](C)NC(=O)[C@H](CCCNC(=N)N)NC(=O)[C@H](Cc1ccc(O)cc1)NC(=O)[C@H](CC(C)C)NC(=O)CNC(=O)[C@@H](N)Cc1c[nH]cn1, 1.0 h): 90%

SMILES: CC[C@H](C)[C@@H]1NC(C)CN(CC(N)=O)C(=O)CNC(=O)[C@H](C)NC(=O)[C@H](CCCNC(=N)N)NC(=O)[C@H](Cc2ccc(O)cc2)NC(=O)[C@H](CC(C)C)NC(=O)CNC1=O (stereo partly drawn) [H-Ile-Gly-Leu-Tyr-Arg-Ala-Gly-(N-propargyl)Gly-NH2]
- ring closure, conversion by HPLC (from C#CCN(CC(N)=O)C(=O)CNC(=O)[C@H](C)NC(=O)[C@H](CCCNC(=N)N)NC(=O)[C@H](Cc1ccc(O)cc1)NC(=O)[C@H](CC(C)C)NC(=O)CNC(=O)[C@@H](N)[C@@H](C)CC, 1.0 h): 76%

SMILES: CC(C)C[C@@H]1NC(=O)CNC(=O)[C@H](Cc2ccccc2)NC(C)CN(CC(N)=O)C(=O)[C@H](C)NC(=O)[C@H](C)NC(=O)[C@H](CCCNC(=N)N)NC(=O)[C@H](Cc2ccc(O)cc2)NC1=O (stereo partly drawn) [H-Phe-Gly-Leu-Tyr-Arg-Ala-Ala-(N-propargyl)Gly-NH2]
- ring closure, conversion by HPLC (from C#CCN(CC(N)=O)C(=O)[C@H](C)NC(=O)[C@H](C)NC(=O)[C@H](CCCNC(=N)N)NC(=O)[C@H](Cc1ccc(O)cc1)NC(=O)[C@H](CC(C)C)NC(=O)CNC(=O)[C@@H](N)Cc1ccccc1, 1.0 h): 89%

SMILES: CC(C)C[C@@H]1NC(=O)CNC(=O)[C@H](Cc2ccccc2)NC(C)CN(CC(N)=O)C(=O)[C@H](CC(=O)O)NC(=O)[C@H](C)NC(=O)[C@H](CCCNC(=N)N)NC(=O)[C@H](Cc2ccc(O)cc2)NC1=O (stereo partly drawn) [H-Phe-Gly-Leu-Tyr-Arg-Ala-Asp-(N-propargyl)Gly-NH2]
- ring closure, conversion by HPLC (from C#CCN(CC(N)=O)C(=O)[C@H](CC(=O)O)NC(=O)[C@H](C)NC(=O)[C@H](CCCNC(=N)N)NC(=O)[C@H](Cc1ccc(O)cc1)NC(=O)[C@H](CC(C)C)NC(=O)CNC(=O)[C@@H](N)Cc1ccccc1, 1.0 h): 80%

SMILES: CC(C)C[C@@H]1NC(=O)CNC(=O)[C@H](Cc2ccccc2)NC(C)CN([C@@H](C)C(N)=O)C(=O)CNC(=O)[C@H](C)NC(=O)[C@H](CCCNC(=N)N)NC(=O)[C@H](Cc2ccc(O)cc2)NC1=O (stereo partly drawn) [H-Phe-Gly-Leu-Tyr-Arg-Ala-Gly-(N-propargyl)Ala-NH2]
- ring closure, conversion by HPLC (from C#CCN(C(=O)CNC(=O)[C@H](C)NC(=O)[C@H](CCCNC(=N)N)NC(=O)[C@H](Cc1ccc(O)cc1)NC(=O)[C@H](CC(C)C)NC(=O)CNC(=O)[C@@H](N)Cc1ccccc1)[C@@H](C)C(N)=O, 1.0 h): 90%

SMILES: CC(C)C[C@@H]1NC(=O)CNC(=O)[C@H](Cc2ccccc2)NC(C)CN([C@@H](CC(=O)O)C(N)=O)C(=O)CNC(=O)[C@H](C)NC(=O)[C@H](CCCNC(=N)N)NC(=O)[C@H](Cc2ccc(O)cc2)NC1=O (stereo partly drawn) [H-Phe-Gly-Leu-Tyr-Arg-Ala-Gly-(N-propargyl)Asp-NH2]
- ring closure, conversion by HPLC (from C#CCN(C(=O)CNC(=O)[C@H](C)NC(=O)[C@H](CCCNC(=N)N)NC(=O)[C@H](Cc1ccc(O)cc1)NC(=O)[C@H](CC(C)C)NC(=O)CNC(=O)[C@@H](N)Cc1ccccc1)[C@@H](CC(=O)O)C(N)=O, 1.0 h): 56%

SMILES: CC(C)C[C@@H]1NC(=O)CNC(=O)[C@H](Cc2ccccc2)NC(C)CN(CC(N)=O)C(=O)CNC(=O)[C@H](C)NC(=O)[C@H](CCCNC(=N)N)NC(=O)[C@H](Cc2ccc(O)cc2)NC1=O (stereo partly drawn) [H-Phe-Gly-Leu-Tyr-Arg-Ala-Gly-(N-propargyl)Gly-NH2]
- ring closure, conversion by HPLC (from C#CCN(CC(N)=O)C(=O)CNC(=O)[C@H](C)NC(=O)[C@H](CCCNC(=N)N)NC(=O)[C@H](Cc1ccc(O)cc1)NC(=O)[C@H](CC(C)C)NC(=O)CNC(=O)[C@@H](N)Cc1ccccc1, 0.5 h): 85%

SMILES: CC[C@H](C)[C@@H](C(N)=O)N1CC(C)N[C@@H](Cc2ccccc2)C(=O)NCC(=O)N[C@@H](CC(C)C)C(=O)N[C@@H](Cc2ccc(O)cc2)C(=O)N[C@@H](CCCNC(=N)N)C(=O)N[C@@H](C)C(=O)NCC1=O (stereo partly drawn) [H-Phe-Gly-Leu-Tyr-Arg-Ala-Gly-(N-propargyl)Ile-NH2]
- ring closure, conversion by HPLC (from C#CCN(C(=O)CNC(=O)[C@H](C)NC(=O)[C@H](CCCNC(=N)N)NC(=O)[C@H](Cc1ccc(O)cc1)NC(=O)[C@H](CC(C)C)NC(=O)CNC(=O)[C@@H](N)Cc1ccccc1)[C@H](C(N)=O)[C@@H](C)CC, 1.0 h): 85%

SMILES: CC(C)C[C@@H]1NC(=O)CNC(=O)[C@H](Cc2ccccc2)NC(C)CN([C@@H](Cc2ccccc2)C(N)=O)C(=O)CNC(=O)[C@H](C)NC(=O)[C@H](CCCNC(=N)N)NC(=O)[C@H](Cc2ccc(O)cc2)NC1=O (stereo partly drawn) [H-Phe-Gly-Leu-Tyr-Arg-Ala-Gly-(N-propargyl)Phe-NH2]
- ring closure, conversion by HPLC (from C#CCN(C(=O)CNC(=O)[C@H](C)NC(=O)[C@H](CCCNC(=N)N)NC(=O)[C@H](Cc1ccc(O)cc1)NC(=O)[C@H](CC(C)C)NC(=O)CNC(=O)[C@@H](N)Cc1ccccc1)[C@@H](Cc1ccccc1)C(N)=O, 1.0 h): 88%

SMILES: CC[C@H](C)[C@@H]1NC(=O)[C@H](C)NC(=O)[C@H](CCCNC(=N)N)NC(=O)[C@H](Cc2ccc(O)cc2)NC(=O)[C@H](CC(C)C)NC(=O)CNC(=O)[C@H](Cc2ccccc2)NC(C)CN(CC(N)=O)C1=O (stereo partly drawn) [H-Phe-Gly-Leu-Tyr-Arg-Ala-Ile-(N-propargyl)Gly-NH2]
- ring closure, conversion by HPLC (from C#CCN(CC(N)=O)C(=O)[C@@H](NC(=O)[C@H](C)NC(=O)[C@H](CCCNC(=N)N)NC(=O)[C@H](Cc1ccc(O)cc1)NC(=O)[C@H](CC(C)C)NC(=O)CNC(=O)[C@@H](N)Cc1ccccc1)[C@@H](C)CC, 1.0 h): 89%

SMILES: CC(C)C[C@@H]1NC(=O)CNC(=O)[C@H](Cc2ccccc2)NC(C)CN(CC(N)=O)C(=O)[C@H](CO)NC(=O)[C@H](C)NC(=O)[C@H](CCCNC(=N)N)NC(=O)[C@H](Cc2ccc(O)cc2)NC1=O (stereo partly drawn) [H-Phe-Gly-Leu-Tyr-Arg-Ala-Ser-(N-propargyl)Gly-NH2]
- ring closure, conversion by HPLC (from C#CCN(CC(N)=O)C(=O)[C@H](CO)NC(=O)[C@H](C)NC(=O)[C@H](CCCNC(=N)N)NC(=O)[C@H](Cc1ccc(O)cc1)NC(=O)[C@H](CC(C)C)NC(=O)CNC(=O)[C@@H](N)Cc1ccccc1, 1.0 h): 64%

SMILES: CC(C)C[C@@H]1NC(=O)CNC(=O)[C@H](Cc2ccccc2)NC(C)CN(CC(N)=O)C(=O)CNC(=O)[C@H](C)NC(=O)[C@H](CC(=O)O)NC(=O)[C@H](Cc2ccc(O)cc2)NC1=O (stereo partly drawn) [H-Phe-Gly-Leu-Tyr-Asp-Ala-Gly-(N-propargyl)Gly-NH2]
- ring closure, conversion by HPLC (from C#CCN(CC(N)=O)C(=O)CNC(=O)[C@H](C)NC(=O)[C@H](CC(=O)O)NC(=O)[C@H](Cc1ccc(O)cc1)NC(=O)[C@H](CC(C)C)NC(=O)CNC(=O)[C@@H](N)Cc1ccccc1, 1.0 h): 82%

SMILES: CC(C)C[C@@H]1NC(=O)CNC(=O)[C@H](Cc2ccccc2)NC(C)CN(CC(N)=O)C(=O)CNC(=O)[C@H](C)NC(=O)[C@H](CCC(N)=O)NC(=O)[C@H](Cc2ccc(O)cc2)NC1=O (stereo partly drawn) [H-Phe-Gly-Leu-Tyr-Gln-Ala-Gly-(N-propargyl)Gly-NH2]
- ring closure, conversion by HPLC (from C#CCN(CC(N)=O)C(=O)CNC(=O)[C@H](C)NC(=O)[C@H](CCC(N)=O)NC(=O)[C@H](Cc1ccc(O)cc1)NC(=O)[C@H](CC(C)C)NC(=O)CNC(=O)[C@@H](N)Cc1ccccc1, 1.0 h): 64%

SMILES: CC(C)C[C@@H]1NC(=O)CNC(=O)[C@H](Cc2ccccc2)NC(C)CN(CC(N)=O)C(=O)CNC(=O)[C@H](C)NC(=O)[C@H](CCC(=O)O)NC(=O)[C@H](Cc2ccc(O)cc2)NC1=O (stereo partly drawn) [H-Phe-Gly-Leu-Tyr-Glu-Ala-Gly-(N-propargyl)Gly-NH2]
- ring closure, conversion by HPLC (from C#CCN(CC(N)=O)C(=O)CNC(=O)[C@H](C)NC(=O)[C@H](CCC(=O)O)NC(=O)[C@H](Cc1ccc(O)cc1)NC(=O)[C@H](CC(C)C)NC(=O)CNC(=O)[C@@H](N)Cc1ccccc1, 1.0 h): 83%

SMILES: CC(C)C[C@@H]1NC(=O)CNC(=O)[C@H](Cc2ccccc2)NC(C)CN(CC(N)=O)C(=O)CNC(=O)[C@H](C)NC(=O)[C@H](Cc2c[nH]cn2)NC(=O)[C@H](Cc2ccc(O)cc2)NC1=O (stereo partly drawn) [H-Phe-Gly-Leu-Tyr-His-Ala-Gly-(N-propargyl)Gly-NH2]
- ring closure, conversion by HPLC (from C#CCN(CC(N)=O)C(=O)CNC(=O)[C@H](C)NC(=O)[C@H](Cc1c[nH]cn1)NC(=O)[C@H](Cc1ccc(O)cc1)NC(=O)[C@H](CC(C)C)NC(=O)CNC(=O)[C@@H](N)Cc1ccccc1, 1.0 h): 57%

SMILES: CC(C)C[C@@H]1NC(=O)CNC(=O)[C@H](Cc2ccccc2)NC(C)CN(CC(N)=O)C(=O)CNC(=O)[C@H](C)NC(=O)[C@@H]2CCCN2C(=O)[C@H](Cc2ccc(O)cc2)NC1=O (stereo partly drawn) [H-Phe-Gly-Leu-Tyr-Pro-Ala-Gly-(N-propargyl)Gly-NH2]
- ring closure, conversion by HPLC (from C#CCN(CC(N)=O)C(=O)CNC(=O)[C@H](C)NC(=O)[C@@H]1CCCN1C(=O)[C@H](Cc1ccc(O)cc1)NC(=O)[C@H](CC(C)C)NC(=O)CNC(=O)[C@@H](N)Cc1ccccc1, 1.0 h): 77%

SMILES: CC(C)C[C@@H]1NC(=O)CNC(=O)[C@H](Cc2ccccc2)NC(C)CN(CC(N)=O)C(=O)CNC(=O)[C@H](C)NC(=O)[C@H](CO)NC(=O)[C@H](Cc2ccc(O)cc2)NC1=O (stereo partly drawn) [H-Phe-Gly-Leu-Tyr-Ser-Ala-Gly-(N-propargyl)Gly-NH2]
- ring closure, conversion by HPLC (from C#CCN(CC(N)=O)C(=O)CNC(=O)[C@H](C)NC(=O)[C@H](CO)NC(=O)[C@H](Cc1ccc(O)cc1)NC(=O)[C@H](CC(C)C)NC(=O)CNC(=O)[C@@H](N)Cc1ccccc1, 1.0 h): 74%
